This is an account of results in ChEMBL document CHEMBL4706519, “Evaluation of N-phenyl-2-aminothiazoles for treatment of multi-drug resistant and intracellular Staphylococcus aureus infections” (Eur J Med Chem, 2020).

Values after ≈ are worked out from the molar mass of the structure shown.

Assay [1] relates to Staphylococcus aureus. In words: microbe, parasite or virus in culture. The note with it: USA500 NRS385.
For assay [2], the system named is Staphylococcus aureus. In words: Antibacterial activity against methicillin-resistant Staphylococcus aureus USA300 NRS384 assessed as inhibition of bacterial growth measured after 18 to 20 hrs by broth microdilution method. The class given is functional. As to conditions: time 18-20 hrs.
Assay [3] relates to Streptococcus pneumoniae. In words: Antibacterial activity against methicillin-resistant Streptococcus pneumoniae ATCC 700677 assessed as inhibition of bacterial growth measured after 18 to 20 hrs by CLSI protocol based broth microdilution method. The class given is functional. As to conditions: time 18-20 hrs. (In general: Broth dilution looks for growth in wells or tubes with falling amounts of substance.)

The test system of assay [4] is Listeria monocytogenes. Description: Antibacterial activity against Listeria monocytogenes ATCC 19111 assessed as inhibition of bacterial growth measured after 18 to 20 hrs by CLSI protocol based broth microdilution method. The class given is functional. The note with it: time 18-20 hrs.
The subject of assay [5] is Escherichia coli. Description: Antibacterial activity against Escherichia coli JW55031 harboring toIC efflux mutant assessed as inhibition of bacterial growth measured after 18 to 20 hrs by broth microdilution method. The note with it: time 18-20 hrs. The class given is functional.
The test system of assay [6] is Staphylococcus aureus. In words: microbe, parasite or virus in culture. The note with it: USA700 NRS386.
Assay [7] deals with Streptococcus pneumoniae. In words: Ratio of MBC to MIC for cephalosporin-resistant Streptococcus pneumoniae ATCC 51916 assessed as inhibition of bacterial growth measured after 18 to 20 hrs by CLSI protocol based broth microdilution method. The assay is classed as functional. The note with it: time 18-20 hrs.
Assay [8] relates to Staphylococcus aureus. In words: Antibacterial activity against methicillin-resistant Staphylococcus aureus USA400 NRS123 infected in mouse J774 cells assessed as log reduction in intracellular bacterial burden at 2 x MIC measured after 24 hrs. The class given is functional.
Assay [9] has as its system Staphylococcus aureus. In words: Antibacterial activity against methicillin-resistant Staphylococcus aureus USA400 NRS123 infected in mouse J774 cells assessed as log reduction in intracellular bacterial burden at 4 x MIC measured after 24 hrs. The assay is classed as functional.
In assay [10] the test system is Staphylococcus aureus. In words: Bactericidal activity against methicillin-resistant Staphylococcus aureus USA400 NRS123 assessed as post-antibiotic effect at 5 times MIC incubated for 2 hrs followed by compound wash-out by viable plate count method. The class given is functional.

With `C/C(=N\NC(=N)N)c1ccc(Nc2nc(-c3ccc(C)cc3)cs2)cc1`, the MBC in [1] came to 2 µg/mL (≈ 5.49 µM); in assay [3], 8 µg/mL (≈ 21.9 µM); in assay [4], 2 µg/mL (≈ 5.49 µM); in [6], 2 µg/mL (≈ 5.49 µM). Besides, the MIC in assay [1] came out at 2 µg/mL (≈ 5.49 µM); in assay [2] it was 2 µg/mL (≈ 5.49 µM); in assay [3] it was 2 µg/mL (≈ 5.49 µM); in assay [4], 1 µg/mL (≈ 2.74 µM); in [5], 4 µg/mL (≈ 11 µM); in assay [6] it was 2 µg/mL (≈ 5.49 µM). Also, in [7], the Ratio is on record as 1. Further, the Activity in assay [8] worked out at 1.19 log10CFU/ml; in assay [9], 2.49 log10CFU/ml. Besides, the PAE in [10] is 6 h.
